Reference: paper PMC4317228 (Pharmacology Research & Perspectives, 2014)

Experiments:
[1] = target: T1, human 5HT2A receptor (h5HT2A) (Homo sapiens, UniProt P28223); assay: [3H]ketanserin displacement
T1 construct: gene HTR2A

[2] = target: T2, human metabotropic glutamate type 2 receptor (hmGlu2) (Homo sapiens, UniProt Q14416); assay: [3H]DCG-IV saturation binding, hmGlu2 CHO membranes
T2 construct: gene GRM2; full-length receptor, stably expressed in CHO cells (membranes)
T2 sequence (Q14416 19-872): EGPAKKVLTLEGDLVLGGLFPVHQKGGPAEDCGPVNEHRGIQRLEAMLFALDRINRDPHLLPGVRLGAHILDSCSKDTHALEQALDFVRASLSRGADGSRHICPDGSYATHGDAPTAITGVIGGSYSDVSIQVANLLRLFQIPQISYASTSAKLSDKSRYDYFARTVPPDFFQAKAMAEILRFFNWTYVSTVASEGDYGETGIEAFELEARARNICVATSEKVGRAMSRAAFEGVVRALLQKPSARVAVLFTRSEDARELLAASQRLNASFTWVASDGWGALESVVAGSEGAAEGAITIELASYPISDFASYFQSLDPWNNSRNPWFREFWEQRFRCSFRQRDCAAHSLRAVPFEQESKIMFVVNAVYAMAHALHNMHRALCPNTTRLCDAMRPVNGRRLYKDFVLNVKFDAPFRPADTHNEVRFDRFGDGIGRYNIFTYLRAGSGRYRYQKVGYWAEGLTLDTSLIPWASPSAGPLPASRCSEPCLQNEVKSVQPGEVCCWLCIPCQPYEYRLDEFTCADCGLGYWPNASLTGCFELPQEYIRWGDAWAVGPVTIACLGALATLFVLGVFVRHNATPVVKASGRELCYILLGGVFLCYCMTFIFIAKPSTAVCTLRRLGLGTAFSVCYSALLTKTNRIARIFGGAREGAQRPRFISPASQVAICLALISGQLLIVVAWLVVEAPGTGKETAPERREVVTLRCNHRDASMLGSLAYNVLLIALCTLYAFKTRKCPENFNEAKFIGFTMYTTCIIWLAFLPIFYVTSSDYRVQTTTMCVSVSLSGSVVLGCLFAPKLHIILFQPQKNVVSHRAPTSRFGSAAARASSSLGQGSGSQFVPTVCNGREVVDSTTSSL

T1 sequence (P28223 whole entry): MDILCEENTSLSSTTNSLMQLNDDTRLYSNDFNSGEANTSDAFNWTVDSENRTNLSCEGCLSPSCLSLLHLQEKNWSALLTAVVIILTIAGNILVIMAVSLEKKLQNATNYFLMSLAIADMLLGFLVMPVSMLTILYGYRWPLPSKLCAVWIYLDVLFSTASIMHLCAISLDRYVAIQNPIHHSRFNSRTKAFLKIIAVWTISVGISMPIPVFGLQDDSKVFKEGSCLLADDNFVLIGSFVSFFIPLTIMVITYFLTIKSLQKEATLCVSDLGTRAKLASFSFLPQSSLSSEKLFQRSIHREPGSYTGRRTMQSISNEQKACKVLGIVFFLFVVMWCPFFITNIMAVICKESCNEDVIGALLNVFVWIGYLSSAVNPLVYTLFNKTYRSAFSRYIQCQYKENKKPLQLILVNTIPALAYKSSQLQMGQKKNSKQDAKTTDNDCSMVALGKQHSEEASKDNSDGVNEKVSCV

| IC50 [1] [nM] | Kd [2] [nM] | SMILES |
| --- | --- | --- |
| 102 |  | CCCCn1ccc(N2CCC(c3ccc(O)cc3)CC2)c(Cl)c1=O [JNJ-42159052] |
|  | 200 | N[C@H](C(=O)O)C1[C@@H](C(=O)O)[C@@H]1C(=O)O (some centres unmarked) [DCG-IV] |
